US5332733A, “Heterocyclically substituted piperazinoakylbenzoxazine and piperazinoalkylbenzothiazine compounds, processes for preparing them, and medicaments containing them” (Kali-Chemie Pharma GmbH, priority 1990, dated 1994)
Read-outs that look alike come from different tables or passages of the source.

Experiments:
histamine-(H1)-receptor = target: T1, histamine-(H1)-receptor (Cavia porcellus, UniProt P31389); experiment: Histamine-(H1)-receptor antagonism in vitro, histamine-induced contractions of isolated ileum; format: cell-based, guinea pig (Dunkin Hartley); settings: test substance 10^-6 mole/l, histamine 5 × 10^-6 mole/l
T1 construct: Segments of the ileum 1.5 cm long from Dunkin Hartley guinea pigs; from tissue; host or cells: isolated ileum of Dunkin Hartley guinea pigs
Experimental: 3. Investigation of Anti-Histamine-(H1) Effect Based on Histamine-(H1)-Receptor Antagonism In Vitro
To investigate the histamine-(H1)-receptor antagonism of the test substances, the inhibiting effect of the substances on histamine-induced contractions of the smooth muscle was determined in vitro on the isolated organ. Isolated strips of organ from the ileum are suitable for this purpose. In an organ bath of physiological saline solution the smooth muscle strips react to the addition of histamine by contracting. […] The extent of regression of the contraction is an indication of the anti-histamine-(H1) activity of the compounds. The investigation was carried out analogously to the method originally described by Magnus (Pfluegers Arch. 102, 123 (1904)).
Procedure for determining the smooth muscle contraction inhibiting effect on isolated guinea pig ileum induced by a 5×10^-6 molar histamine concentration
Segments of the ileum 1.5 cm long from Dunkin Hartley guinea pigs having a body weight of 300 500 g were used for the test. Each strip was placed in an organ bath of 10 ml of physiological saline solution according to Krebs-Henseleit and attached to a conventional apparatus for isotonic measurement of changes in length of the ileum strips (automated Celaster measuring apparatus), so that the tissue was under 1 g of tension. The bath was kept at a pH of 7.4 and gassed with a mixture of 5% CO2 and 95% O2. After an equilibration phase, an isotonic contraction of the tissue was induced by adding histamine in a final concentration of 5×10^-6 mole/liter and washing it out again after a contact time of 30 seconds. Only tissues samples from which three reproducible contractions were obtained at 10 minute intervals were used in the subsequent test. The test substances were then added in a final concentration of 10^-6 mole/liter, and after 30 seconds contact time histamine was again added up to a concentration of 5×10^-6 mole/liter. The resulting contractions were measured over 30 seconds. The tissue was then washed several times over a period of 10 minutes. Histamine was then added again to stimulate a contraction. The resulting contractions were again measured over 30 seconds. The difference between the amplitude of the contraction obtained by histamine addition alone and the amplitude of the contraction obtained in the presence of the test substance was determined and expressed in terms of % inhibition.
The inhibiting effects on the contractions induced by histamine 30 seconds after administration of the test substance and on the contractions induced by the addition of histamine 10 minutes later are listed in the table.

[1] = system: histamine-induced anaphylactoid cutaneous reaction; experiment: Inhibition of histamine-induced anaphylactoid cutaneous reaction in rats; format: in vivo, Sprague-Dawley rats; settings: Rattus norvegicus, 1 h, 2 × 10^-5 mole/kg per os, one hour before ovalbumin challenge
Experimental: (§1) 1. Determining Inhibition of Passive Cutaneous Anaphylaxis (PCA) and Histamine-Induced Anaphylactoid Cutaneous Reaction
(§2) The inhibition of the passive cutaneous anaphylaxis and of the anaphylactoid cutaneous reaction induced by histamine was determined as follows:
(§3) Sprague-Dawley rats having a body weight of 150-180 g were injected intradermally in one flank with 50 μl of a 1:75 dilution of the IgE-rich ovalbumin antiserum in physiological saline solution to passively sensitize them to ovalbumin.
(§4) 24 hours after sensitization a solution of 8.25 mg/kg of ovalbumin and 26.4 mg/kg of a blue dye (Evans's Blue) was administered to the rats intravenously according to Martin et al. to trigger passive cutaneous anaphylaxis.
To determine the histamine-induced anaphylactoid skin reaction, the animals are injected intradermally in the flank opposite to the antiserum administration with 50 μl of a physiological saline solution containing 0.8 mg/ml histamine directly before the intravenous injection of the solution containing the ovalbumin and the blue dye.
(§5) On the day of the experiment the test substances were dissolved in distilled water which contained 1 vol. % dimethylformamide and 1 vol. % of Tween™ 20 (=polyoxyethylene (20) sorbitan monolaurate). One hour before administration of the ovalbumin challenge, each animal was orally administered 2×10^-5 mole/kg of test substance in 0.5 ml of solution. For comparison purposes a control group received only the solvent.
(§6) The edematous anaphylactic (PCA) and anaphylactoid (histamine-induced) reactions caused by the stimulation of the intravenous ovalbumin injection, which manifested themselves by edema formation, swelling and exudation of blue dye, were evaluated 30 minutes after their initiation by the intravenous ovalbumin injection. This was done by visually determining the extent to which the blue dye emerged at the sites of edema formation. The percentage inhibition of anaphylactic and anaphylactoid reactions induced by the test substances in comparison with the reactions of the control animals not treated with any test substance was determined using comparison scales.
(§7) The results obtained using compounds of formula I according to the foregoing test methods are shown in the following Table A. The example numbers given for the compounds of formula I relate to the subsequent preparative examples.

[2] = system: passive cutaneous anaphylaxis (PCA); experiment: Inhibition of passive cutaneous anaphylaxis (PCA) in rats; format: in vivo, Sprague-Dawley rats; settings: Rattus norvegicus, 1 h, 2 × 10^-5 mole/kg per os, one hour before ovalbumin challenge
Experimental: as §1
The PCA reaction is carried out following the methods described by Goose et al. (J. N. Immunology 16 (1969), 749) and by Martin et al. (Arch. Pharmacol. 316 (1981), 186).
The IgE-rich ovalbumin antiserum used in the test was obtained from immunized Brown-Norway rats. The were immunized with an intraperitoneal injection of a mixture of 100 μg of ovalbumin with a Bordetella pertussis suspension (Vaxicoq™, Manufactured by Institute Merieux, containing 5×10^9 organisms and 1.25 mg Al(OH)3). After 20 days the animals were re-immunized with a further intraperitoneal injection of a solution of 10 μg ovalbumin in 0.5 ml physiological saline solution. After a further four days the blood was removed from the animals and centrifuged. The resulting antiserum was stored at -20° C. until use.
as §2, §3, §4, §5, §6, §7

[3] = system: PAF-induced aggregation of rabbit blood platelets; experiment: Anti-PAF activity in vitro, PAF-induced platelet aggregation; format: cell-based, rabbit (New Zealand hybrids); settings: Oryctolagus cuniculus, test substance 10^-5 mole/l, pH 7.4
Text: 4. Determination of Anti-PAF Activity In Vitro
PAF (=Platelet Activating Factor) is a phospholipid mediator which has many effects. Activation of platelet aggregation induces protracted broncho-contraction and hyper-reactivity of the air paths.
In this test the effect of the test substances on platelet aggregation induced by adding PAF to a suspension of platelets obtained from rabbit blood is investigated using the method described by Mikashima et al. (Jap. J. Pharmacol. 44 (1987) 387-391).
A suspension of platelets obtained from rabbit blood containing 4×10^9 platelets/ml in a modified Tyrode buffer solution (=Tyrode solution with 1.3 mM/l CaCl2 and 2.5 g/l gelatine added) adjusted to pH 7.4 was used. Tyrode solution is an aqueous solution containing 136.9 mmoles NaCl, 2.68 mmoles KCl, 2.31 mmoles CaCl2, 1.0 mmole MgCl2, 11.9 mmoles NaHCO3, 1.45 mmoles NaH2 PO4 and 5.55 mmoles glucose per liter. The platelets were obtained from 10 ml blood samples from each of three rabbits (New Zealand hybrids, body weight 3-4 kg). For this the blood samples were treated with ethylenediamine tetraacetic acid and washed according to the method of Artley et al. (Brit. J. Hematol. 19 (1970), 7-17). A platelet-rich plasma was then initially separated by centrifuging (20 minutes at 400×g). The blood platelets were separated from the plasma by recentrifuging for 15 minutes at 1,400×g. The platelets remaining as sediment after centrifuging were resuspended in a Tyrode buffer solution (but without calcium). 0.4 mmole of lysine acetylsalicylate was then added, and after 15 minutes the platelets were sedimented again. The sediment was resuspended in the aforementioned modified Tyrode buffer solution, and the number of platelets in the resulting suspension was adjusted to the desired content.
A 40×10^-9 molar PAF solution was used as a reagent. This solution was made from a 1.8×10^-3 molar stock solution in chloroform. For this purpose a 10 μl sample of the stock solution was evaporated to dryness and redissolved in 180 μl of the modified Tyrode solution to which 0.25% of lipid-free bovine serum albumin had been added. From this 10^-5 molar working solutions were then prepared and stored frozen. Samples of these solutions were appropriately diluted for the tests.
To carry out the test 50 μl of the platelet suspension and 10 μl of a 40×10^-5 molar solution of the compound being investigated were added with stirring (1,000 rpm) to 330 μl of the modified Tyrode buffer solution in an aggregation tube provided with a small magnetic stirrer. This corresponds to a final test substance concentration of 10^-5 mole/l. After 90 seconds preincubation time, 10 μl of the PAF preparation were added. The aggregation occurring in the aggregation tubes was measured over 4-5 minutes with the aid of a computerized aggregometer.
The aggregation which occurred in test tubes containing only platelet suspension was evaluated as 0%, whereas the aggregation which occurred in test tubes containing platelet suspension and PAF preparation was evaluated as 100%. The aggregation which still occurred during the inhibition of the PAF induced platelet aggregation due to the addition of the test substances was measured, and the resulting aggregation inhibition was calculated therefrom in %.

mice = settings: mouse, in vivo, 1440 min
Experimental: 2. Determination of Minimum Toxic Dose
Maximum doses of 300 mg/kg of the test substance were administered orally to male mice weighing 20-25 g. The animals were observed carefully for 3 hours for toxicity symptoms. In addition, all symptoms and deaths were recorded over a period of 24 hours after administration. Associated symptoms were also observed and recorded. If death or severe toxic symptoms were observed, additional mice were administered increasingly lower doses. The lowest dose which produced death or severe toxic symptoms is given in the following Table B as the minimum toxic dose.

[4] = 0.5 min, after 30 seconds, read-out: % inhibition of histamine-induced ileum contractions after 30 seconds
[5] = 10 min, after 10 minutes (after washing), read-out: % inhibition of histamine-induced ileum contractions after 10 minutes

T1 sequence (P31389 whole entry): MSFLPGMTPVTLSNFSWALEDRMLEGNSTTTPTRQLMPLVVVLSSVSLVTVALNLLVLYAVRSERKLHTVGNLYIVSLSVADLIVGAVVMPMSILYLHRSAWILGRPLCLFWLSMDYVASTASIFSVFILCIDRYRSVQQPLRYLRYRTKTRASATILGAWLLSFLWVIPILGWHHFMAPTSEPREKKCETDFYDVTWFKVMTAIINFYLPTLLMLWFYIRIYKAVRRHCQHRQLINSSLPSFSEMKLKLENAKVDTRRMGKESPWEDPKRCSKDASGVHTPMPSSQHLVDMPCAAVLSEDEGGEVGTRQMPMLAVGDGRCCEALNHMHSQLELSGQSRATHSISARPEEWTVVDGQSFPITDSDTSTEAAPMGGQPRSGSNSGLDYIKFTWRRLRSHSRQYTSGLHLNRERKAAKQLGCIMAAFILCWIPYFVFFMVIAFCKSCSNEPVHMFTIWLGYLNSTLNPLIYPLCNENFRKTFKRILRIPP

| SMILES | inhibition at 1 µM (histamine-(H1)-receptor; [4]) [%] | inhibition at 1 µM (histamine-(H1)-receptor; [5]) [%] | inhibition in vivo at 20 µmol/kg [1] [%] | inhibition in vivo at 20 µmol/kg [2] [%] | inhibition at 10 µM [3] [%] | Minimum toxic dose (mice) [mg/kg] |
| --- | --- | --- | --- | --- | --- | --- |
| Cc1ccnc(N2CCN(CCCCC3Oc4ccc(C)cc4NC3=O)CC2)c1 (centres unmarked) [Example 24] | 70 | 86 | 60 | 80 | – | – |
| Cc1ccnc(N2CCN(CCCCC3Sc4cc(F)ccc4NC3=O)CC2)c1 (centres unmarked) [Example 18] | 78 | 83 | 53 | 80 | 76 | – |
| O=C1Nc2ccccc2SC1CCCCN1CCN(c2ccccn2)CC1 (centres unmarked) [Example 17] | – | – | 35 | 70 | – | – |
| Cc1ccnc(N2CCN(CCCC3Sc4cc(C)ccc4NC3=O)CC2)c1 (centres unmarked) [Example 10] | 42 | 36 | 35 | 70 | 74 | – |
| O=C1Nc2ccccc2SC1CCCCN1CCN(c2ncccn2)CC1 (centres unmarked) [Example 12] | – | – | 50 | 80 | – | 300 |
| Cc1ccnc(N2CCN(CCCCC3Sc4cc(Cl)ccc4NC3=O)CC2)c1 (centres unmarked) [Example 27] | 16 | 72 | 35 | 60 | 35 | – |
| COc1cccc(N2CCN(CCCCC3Sc4ccccc4NC3=O)CC2)n1 (centres unmarked) [Example 16] | 30 | 27 | 45 | 50 | – | 300 |
| CCCCN1C(=O)C(CCCCN2CCN(c3cc(C)ccn3)CC2)Sc2ccccc21 (centres unmarked) [Example 28] | 38 | 45 | 40 | 65 | 45 | – |
| COc1ccc2c(c1)SC(CCCCN1CCN(c3cc(C)ccn3)CC1)C(=O)N2 (centres unmarked) [Example 19, 7-methoxy-2-{4-[4-(4-methylpyridin-2-yl)-piperazin-1-yl]-butyl}-2H-1,4-benzothiazine-3(4H)-one] | 60 | 42 | 60 | 80 | – | – |
| Cc1ccnc(N2CCN(CCCCC3Sc4ccccc4NC3=S)CC2)c1 (centres unmarked) [Example 2, 2-{4-[4-(4-methylpyridin-2-yl)-piperazin-1-yl]butyl}-2H-1,4-benzothiazine-3(4H) -thione] | 51 | 60 | – | – | 60 | > 300 |
| Cc1ccnc(N2CCN(CCCCC3Sc4ccccc4N(C)C3=O)CC2)c1 (centres unmarked) [Example 3, 4-methyl-2-{4-[4-(4-methylpyridin-2-yl)-piperazin-1-yl]butyl}-2H-1,4-benzothiazine-3(4H)-one] | 66 | 28 | 55 | 80 | – | – |
| Cc1ccc(N2CCN(CCCCC3Sc4ccccc4NC3=O)CC2)nc1 (centres unmarked) [Example 13] | 42 | 15 | 30 | 55 | – | 100 |
| Cc1ccnc(N2CCN(CCCCC3Sc4cc(O)ccc4NC3=O)CC2)c1 (centres unmarked) [Example 25] | 50 | 32 | 15 | 50 | – | – |
| Cc1ccnc(N2CCN(CCCCC3Sc4cc(C)c(C)cc4NC3=O)CC2)c1 (centres unmarked) [Example 21] | 50 | 89 | 55 | 78 | 37 | – |
| Cc1ccnc(N2CCN(CCCCC3Oc4ccc(Cl)cc4NC3=O)CC2)c1 (centres unmarked) [Example 23] | 70 | 83 | – | – | – | – |
